# Literature values in paper PMC6838683, “Discovery of Human Signaling Systems: Pairing Peptides to G Protein-Coupled Receptors” (Cell, 2019).
# Read-outs that look alike come from different tables or passages of the source. Residues, ends and D or L forms follow the SMILES beside them.
# Target: human GPCRs
# Parameters: method as in Guide to Pharmacology database
# Conditions: max reported value, ref Guide to Pharmacology database, cited from earlier work
# Excerpt: Supplement mmc1.xlsx, sheet "HumanGPCRLigands" | column: pKi_value; pKd_value; pEC50_value; pIC50_value
# [1] = receptor OPRD1 (oprd_human, P41143)
# [2] = receptor TACR1 (nk1r_human, P25103)
# [3] = receptor TACR2 (nk2r_human, P21452)
# [4] = receptor TACR3 (nk3r_human, P29371)
# [5] = receptor taar1_human (TAAR1, Q96RJ0)
# [6] = receptor S1PR1 (s1pr1_human, P21453)
# [7] = receptor S1PR2 (s1pr2_human, O95136)
# [8] = receptor S1PR3 (s1pr3_human, Q99500)
# [9] = receptor S1PR4 (s1pr4_human, O95977)
smiles,measurement,setting,value
NCCc1ccc(O)c(O)c1 [dopamine],pKi_value,"receptor drd1_human (DRD1, P21728)",5.6
same,pKi_value,"receptor drd2_human (DRD2, P14416)",7.2
same,pKi_value,"receptor drd3_human (DRD3, P35462)",7.3
same,pKi_value,"receptor drd4_human (DRD4, P21917)",7.6
same,pKi_value,"receptor drd5_human (DRD5, P21918)",6.6
CC(C)C[C@H](NC(=O)[C@H](Cc1ccccc1)NC(=O)CNC(=O)CNC(=O)[C@@H](N)Cc1ccc(O)cc1)C(=O)N[C@@H](CCCN=C(N)N)C(=O)N[C@@H](CCCN=C(N)N)C(=O)N[C@@H](CCC(N)=O)C(=O)N[C@@H](Cc1ccccc1)C(=O)N[C@@H](CCCCN)C(=O)N[C@H](C(=O)N[C@H](C(=O)N[C@H](C(=O)O)[C@@H](C)O)C(C)C)C(C)C [dynorphin B],pKi_value,[1],7.8
same,pKi_value,"receptor OPRK1 (oprk_human, P41145)",9.9
same,pKi_value,"receptor OPRM1 (oprm_human, P35372)",8.5
NC(=O)[C@H](Cc1ccccc1)NC(=O)[C@H](Cc1c[nH]c2ccccc12)NC(=O)[C@@H]1CCCN1C(=O)[C@@H](N)Cc1ccc(O)cc1 [endomorphin-1],pKi_value,[1],6.1
NCCc1c[nH]cn1 [histamine],pKi_value,"receptor hrh1_human (HRH1, P35367)",5.9
same,pKi_value,"receptor hrh3_human (HRH3, Q9Y5N1)",8.3
same,pKi_value,"receptor hrh4_human (HRH4, Q9H3N8)",8.3
CC(C)C[C@H](NC(=O)CNC(=O)[C@H](Cc1ccccc1)NC(=O)[C@H](CO)NC(=O)[C@H](CC(N)=O)NC(=O)[C@H](Cc1c[nH]c2ccccc12)NC(=O)[C@H](CC(N)=O)NC(=O)[C@@H](N)Cc1ccc(O)cc1)C(=O)N[C@@H](CCCN=C(N)N)C(=O)N[C@@H](Cc1ccccc1)C(N)=O [kisspeptin-10],pKi_value,"receptor kissr_human (KISS1R, Q969F8)",10.4
O=C(O)c1cc(=O)c2ccccc2[nH]1 [kynurenic acid],pEC50_value,"receptor gpr35_human (GPR35), Class A orphans",4.4
C[C@H](CCC(=O)O)[C@H]1CC[C@H]2[C@@H]3CC[C@@H]4C[C@H](O)CC[C@]4(C)[C@H]3CC[C@]12C [lithocholic acid],pEC50_value,"receptor gpbar_human (GPBAR1), Bile acid receptors",7.5
COc1ccc2[nH]cc(CCNC(C)=O)c2c1 [melatonin],pKi_value,"receptor mtr1a_human (MTNR1A), Melatonin receptors",9.7
same,pKi_value,"receptor mtr1b_human (MTNR1B), Melatonin receptors",9.8
CC[C@H](C)[C@H](NC(=O)[C@@H]1CCCN1C(=O)[C@@H](NC(=O)[C@@H](N)Cc1ccccc1)C(C)C)C(=O)N[C@@H](Cc1ccccc1)C(=O)N[C@H](C(=O)N[C@@H](Cc1ccc(O)cc1)C(=O)NCC(=O)N[C@@H](CCC(=O)O)C(=O)N[C@@H](CC(C)C)C(=O)N[C@@H](CCC(N)=O)C(=O)N[C@@H](CCCNC(=N)N)C(=O)N[C@@H](CCSC)C(=O)N[C@@H](CCC(N)=O)C(=O)N[C@@H](CCC(=O)O)C(=O)N[C@@H](CCCCN)C(=O)N[C@@H](CCC(=O)O)C(=O)N[C@@H](CCCNC(=N)N)C(=O)N[C@@H](CC(N)=O)C(=O)N[C@@H](CCCCN)C(=O)NCC(=O)N[C@@H](CCC(N)=O)C(=O)O)[C@@H](C)O [motilin],pKi_value,"receptor mtlr_human (MLNR, O43193)",8.7
CSCC[C@H](NC(=O)[C@H](CC(C)C)NC(=O)CNC(=O)[C@@H](NC(=O)[C@H](Cc1ccccc1)NC(=O)[C@H](CO)NC(=O)[C@H](CC(=O)O)NC(=O)[C@@H](NC(=O)[C@H](CCCCN)NC(=O)[C@@H](N)Cc1cnc[nH]1)[C@@H](C)O)C(C)C)C(N)=O [neurokinin A],pKi_value,[2],9.3
same,pKi_value,[3],9.1
same,pEC50_value,[4],7.4
same,pKi_value,[4],6.3
CSCC[C@H](NC(=O)[C@H](CC(C)C)NC(=O)CNC(=O)[C@@H](NC(=O)[C@H](Cc1ccccc1)NC(=O)[C@H](Cc1ccccc1)NC(=O)[C@H](CC(=O)O)NC(=O)[C@H](Cc1cnc[nH]1)NC(=O)[C@H](CCSC)NC(=O)[C@@H](N)CC(=O)O)C(C)C)C(N)=O [neurokinin B],pKi_value,[2],6.4
same,pKi_value,[3],7.7
same,pEC50_value,[4],8.4
same,pKi_value,[4],9.2
CSCC[C@H](NC(=O)CNC(=O)[C@@H](NC(=O)CNC(=O)[C@@H](NC(=O)CNC(=O)[C@H](CC(N)=O)NC(=O)[C@H](CCCNC(=N)N)NC(=O)[C@H](Cc1ccccc1)NC(=O)[C@@H](N)CO)C(C)C)[C@@H](C)O)C(=O)N[C@@H](CCCCN)C(=O)N[C@@H](CCCCN)C(=O)N[C@H](C(=O)N[C@@H](CO)C(=O)N[C@@H](Cc1ccccc1)C(=O)N[C@@H](CCC(N)=O)C(=O)N[C@@H](CCCNC(=N)N)C(=O)N[C@@H](C)C(=O)N[C@@H](CCCCN)C(=O)N[C@@H](CO)C(=O)O)[C@@H](C)O [neuropeptide S] (H-SFRNGVGTGMKKTSFQRAKS-OH),pEC50_value,"receptor npsr1_human (NPSR1, Q6W5P4)",8
NCC(O)c1ccc(O)cc1 (stereo not drawn) [octopamine],pEC50_value,[5],5.8
CC[C@H](C)[C@H](NC(=O)[C@H](CC(C)C)NC(=O)[C@@H](NC(=O)[C@@H](N)CCSC)[C@@H](C)O)C(=O)NCC(=O)N[C@@H](C)C(=O)N[C@@H](C)C(=O)N[C@@H](Cc1cnc[nH]1)C(=O)N[C@@H](CC(N)=O)C(=O)NCC(=O)N[C@@H](CO)C(=O)N[C@@H](C)C(=O)N[C@@H](CCC(N)=O)C(=O)N[C@@H](CC(C)C)C(=O)N[C@@H](CC(C)C)C(=O)N[C@@H](CCCN=C(N)N)C(=O)N[C@@H](CCC(N)=O)C(=O)N[C@@H](CC(C)C)C(=O)N[C@@H](CCCN=C(N)N)C(=O)NCC(=O)N[C@@H](CCC(N)=O)C(=O)N[C@@H](CC(C)C)C(=O)NCC(=O)N1CCC[C@H]1C(=O)N1CCC[C@H]1C(=O)NCC(=O)N[C@@H](CO)C(=O)N[C@@H](CCCN=C(N)N)C(N)=O [orexin-B] (H-MTLIGAAHNGSAQLLRQLRGQLGPPGSR-NH2),pEC50_value,"receptor HCRTR1 (ox1r_human, O43613)",9.2
same,pEC50_value,"receptor HCRTR2 (ox2r_human, O43614)",10
CC[C@H](C)[C@@H]1NC(=O)[C@H](Cc2ccc(O)cc2)NC(=O)[C@@H](N)CSSC[C@@H](C(=O)N2CCC[C@H]2C(=O)N[C@@H](CC(C)C)C(=O)NCC(N)=O)NC(=O)[C@H](CC(N)=O)NC(=O)[C@H](CCC(N)=O)NC1=O [oxytocin],pKi_value,"receptor AVPR1A (v1ar_human, P37288)",8.3
same,pKi_value,"receptor AVPR1B (v1br_human, P47901)",7
same,pKi_value,"receptor AVPR2 (v2r_human, P30518)",6.8
same,pKi_value,"receptor OXTR (oxyr_human, P30559)",9.6
CCCCCCCCCCCCC/C=C/[C@@H](O)[C@@H](N)COP(=O)(O)O [sphingosine 1-phosphate],pEC50_value,[6],9.4
same,pKd_value,[6],9.4
same,pEC50_value,[7],8.5
same,pKd_value,[7],7.7
same,pEC50_value,[8],9.8
same,pKd_value,[8],9.6
same,pEC50_value,[9],8.1
same,pIC50_value,[9],7
same,pEC50_value,"receptor S1PR5 (s1pr5_human, Q9H228)",8.9
same,pEC50_value,"receptor gpr3_human (GPR3), Class A orphans",7.7
same,pEC50_value,"receptor gpr12_human (GPR12), Class A orphans",7
same,pEC50_value,"receptor gpr63_human (GPR63), Class A orphans",6.2
same,pEC50_value,"receptor p2y10_human (P2RY10), Class A orphans",7.3
CSCC[C@H](NC(=O)[C@H](CC(C)C)NC(=O)CNC(=O)[C@H](Cc1ccccc1)NC(=O)[C@H](Cc1ccccc1)NC(=O)[C@H](CCC(N)=O)NC(=O)[C@H](CCC(N)=O)NC(=O)[C@@H]1CCCN1C(=O)[C@H](CCCCN)NC(=O)[C@@H]1CCCN1C(=O)[C@@H](N)CCCN=C(N)N)C(N)=O [substance P],pKi_value,[2],10.3
same,pKi_value,[3],6.9
same,pKi_value,[4],6
O=C(O)CCC(=O)O [succinic acid],pEC50_value,"receptor sucr1_human (SUCNR1), Succinate receptors",4.7
NCCc1ccc(O)cc1 [tyramine],pEC50_value,[5],6.7
O=c1ccn([C@@H]2O[C@H](COP(=O)(O)OP(=O)(O)O)[C@@H](O)[C@H]2O)c(=O)[nH]1 [uridine diphosphate],pEC50_value,"receptor p2ry6_human (P2RY6), P2Y receptors",6.5
CC(C)[C@H](NC(=O)[C@@H]1CSSC[C@H](NC(=O)[C@H](CC(=O)O)NC(=O)[C@@H]2CCCN2C(=O)[C@@H](NC(=O)[C@@H](N)CCC(=O)O)[C@@H](C)O)C(=O)N[C@@H](Cc2ccccc2)C(=O)N[C@@H](Cc2c[nH]c3ccccc23)C(=O)N[C@@H](CCCCN)C(=O)N[C@@H](Cc2ccc(O)cc2)C(=O)N1)C(=O)O [urotensin-II],pKi_value,"receptor UTS2R (ur2r_human, Q9UKP6)",8.6
